Holding throughout (assay): MMP microfluorometric profiling assay (fluorogenic Mca-peptide substrate)
Common to all, as to format: biochemical

One test deals with T1, MMP-9 (Homo sapiens, UniProt P14780).
T1 construct: from tissue; host or cells: human plasma buffy coat (PMNL)
The note with it: for percent inhibition: MMP-9, @ 15 (µM). The protocol: (§1) The tested MMP enzymes were prepared more specifically in the laboratories of the applicants, with the exception of MMP-1. MMP-1 from human rheumatoid synovial fibroblasts was purchased from Calbiochem-Novabiochem Corporation, LaJolla. Preparation of the recombinant catalytic domain of human Gelatinase A (cdMMP-2): The catalytic domain of Pro-Gelatinase A was prepared using an E. coli expression system according to the method described by Kröger et al^[19]. The proenzyme was activated with 0.5 mM APMA at 37°C prior to use in the assay. Preparation of the recombinant catalytic domain of human neutrophile Collagenase (cdMMP-8^Met80): The enzyme was expressed in E. coli as an active variant by the method of Kleine et al^[20]. Preparation of PMNL-Gelatinase (MMP-9): Latent PMNL-pro-Gelatinase was prepared from human plasma buffy coat as described by Tschesche et al^[21]. PMNL-pro-Gelatinase was activated prior to use by incubation with Trypsin at 37°C for 10 min. Inactivation of Trypsin was accomplished with TKI. Preparation of the recombinant catalytic domain of human Macrophage Elastase (cdMMP-12): The catalytic domain of MMP-12 was expressed in E. coli. The overexpressed protein was isolated as inclusion bodies and the renatured protein was purified by affinity chromatography with a hydroxamate inhibitor coupled column as described^[22]. Preparation of the recombinant catalytic domain of human Collagenase-3 (cdMMP-13): Human pro-cdMMP-13 was prepared using an E. coli expression system according to the method described^[23]. The isolated pro-cdMMP-13 was activated prior to use by incubation with 5 mM HgCl2 for 2 h at 37°C. Preparation of the recombinant catalytic domain of Membrane-Type-1 MMP (cdMMP-14): The catalytic domain of MMP-14 was expressed in E. coli and was activated by autocatalysis^[24]. Preparation of the recombinant human ectodomain of Membrane-Type-1 MMP (ΔTM-MMP-14): The ectodomain of MMP-14 was expressed in Pichia Pastoris by the method of Roderfeld et al. and activated by yeast proteases (Furin-like-proteases) during maturation^[25].
(§2) The enzymatic activity was measured using a modified version of a resonance energy transfer fluorogenic assay as described^[26]. Progress curves were monitored by following the increase in fluorescence at 393 nm (λex = 328 nm), induced by the cleavage of the (7-methoxycoumarin-4-yl)acetyl-Pro-Leu-Gly-Leu-(3-[2,4-dinitro-phenyl]-L-2,3-diamino-propionyl)-Ala-Arg-NH2 (Mca-Pro-Leu-Gly-Leu-Dpa-Ala-Arg-NH2) fluorogenic substrate by MMPs. The fluorescent MCA-group is quenched by resonance energy transfer to the 2,4-dinitrophenyl group. Matrix metalloproteinases cleave this substrate at the Gly-Leu bond. Cleavage results in the loss of energy transfer and a large increase in fluorescence of the MCA group. This substrate is commercially available from Bachem, Switzerland.
(§3) Enzyme inhibition assays were carried out in MRB which consisted of 50 mM HEPES/NaOH, pH 7.0, 10 mM CaCl2 and 0,02% (w/v) PEG 8000 at 25°C. MMP microfluorometric profiling assay was done in white U-bottomed 96-well plates (Microfluor 1 White, Dynex, USA) with a final substrate concentration of 6 µM MCA-peptide, approximately 0.3 to 5 nM MMP with variable inhibitor concentrations and 2% DMSO vehicle. From a 1.5 mM stock (100% DMSO) the inhibitors were serially diluted with MRB to 15, 10, 5, 3, 1, 0.6, 0.3, 0.1, 0.05, 0.01 and 0.005 µM final assay concentration. Column 1, rows A through H, contained only DMSO for the "enzyme-only" wells in the assay. After preincubation for 30 min at 25°C the reaction was started by addition of substrate and the plate was read on a SpectraFluor Plus (Tecan, Germany) plate reader with excitation at 330 nm and emission at 405 nm with the gain set to 150. Each measurement was done in triplicate to ensure statistically significant results. […]

A further test concerns the target cdMMP-13 (Homo sapiens, UniProt P45452). The note with it: for percent inhibition: cdMMP-13, @ 15 (µM). The protocol:
as §1, §2, §3

The next test deals with T2, cdMMP-12 (Homo sapiens, UniProt P39900).
T2 construct: The catalytic domain of MMP-12 was expressed in E. coli; made in house; host or cells: E. coli
Here is the method: as §1, §2, §3

The next test concerns the target T3, cdMMP-14 (Homo sapiens, UniProt P50281).
T3 construct: made in house; host or cells: E. coli
The protocol:
as §1, §2, §3

For the next test, the target named is T4, MMP-1 (Homo sapiens, UniProt P03956).
T4 construct: MMP-1 from human rheumatoid synovial fibroblasts was purchased; purchased Calbiochem-Novabiochem Corporation, LaJolla; host or cells: human rheumatoid synovial fibroblasts
T4 sequence (P03956 100-469): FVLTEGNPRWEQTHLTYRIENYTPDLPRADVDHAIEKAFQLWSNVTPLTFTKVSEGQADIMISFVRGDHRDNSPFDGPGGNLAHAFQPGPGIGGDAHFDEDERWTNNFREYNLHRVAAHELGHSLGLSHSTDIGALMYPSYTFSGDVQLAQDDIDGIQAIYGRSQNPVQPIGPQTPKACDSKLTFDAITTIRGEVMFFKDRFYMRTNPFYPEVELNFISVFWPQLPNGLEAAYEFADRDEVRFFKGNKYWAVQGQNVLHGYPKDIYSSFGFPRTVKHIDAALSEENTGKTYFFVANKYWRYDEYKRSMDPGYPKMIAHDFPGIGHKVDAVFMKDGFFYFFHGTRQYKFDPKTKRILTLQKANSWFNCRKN
Here is the method: as §1, §2, §3

Results on 15 compounds are retold here after patent EP1191024A1, “Thiadiazines and their use as inhibitors of metalloproteinases” (Tschesche, Harald, priority 2000, dated 2002).

Molecules are shown by their SMILES. Counter-ions that a name gives are not always drawn. Like-named read-outs stand apart in the source and are kept apart here.

T2 sequence (P39900 106-263 limits assumed): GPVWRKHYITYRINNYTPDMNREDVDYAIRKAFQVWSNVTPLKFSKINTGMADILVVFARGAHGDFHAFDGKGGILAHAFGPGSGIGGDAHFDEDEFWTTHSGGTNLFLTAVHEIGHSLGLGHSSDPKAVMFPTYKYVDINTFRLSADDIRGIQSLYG
T1 sequence (P14780 107-707 limits assumed): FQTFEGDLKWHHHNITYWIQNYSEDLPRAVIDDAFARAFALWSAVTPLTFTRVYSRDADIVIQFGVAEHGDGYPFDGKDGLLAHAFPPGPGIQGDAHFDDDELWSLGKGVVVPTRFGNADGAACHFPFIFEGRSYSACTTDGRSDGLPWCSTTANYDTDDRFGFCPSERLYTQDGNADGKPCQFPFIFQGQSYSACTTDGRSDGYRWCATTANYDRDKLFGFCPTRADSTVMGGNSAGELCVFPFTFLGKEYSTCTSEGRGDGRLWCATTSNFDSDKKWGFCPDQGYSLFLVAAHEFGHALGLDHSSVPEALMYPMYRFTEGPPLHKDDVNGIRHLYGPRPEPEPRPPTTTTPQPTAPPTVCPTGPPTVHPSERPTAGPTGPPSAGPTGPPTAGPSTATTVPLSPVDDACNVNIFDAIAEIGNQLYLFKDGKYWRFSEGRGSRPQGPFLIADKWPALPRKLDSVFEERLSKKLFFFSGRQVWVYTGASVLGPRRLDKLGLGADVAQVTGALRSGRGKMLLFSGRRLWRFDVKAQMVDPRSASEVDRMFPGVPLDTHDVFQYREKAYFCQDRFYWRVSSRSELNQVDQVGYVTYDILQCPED

Regarding `O=C(CC1NC(=O)NC1=O)NC1=NN=C(c2ccc(N3CCCC3)cc2)CS1` (stereo not drawn) [Example 26, 2-(2,5-Dioxo-4-imidazolidinyl)-N-{5-[4-(1-pyrrolidinyl)phenyl]-6H-1,3,4-thiadiazin-2-yl}acetamide], the IC50 (as a rule, the midpoint of a concentration-inhibition curve) against MMP-9 turned out to be 517 nM; against cdMMP-12, 217 nM; at cdMMP-14, 1100 nM. Further, the percent inhibition at cdMMP-13 was 36%^a)@ 15.
Regarding `CC(C)(C)c1ccc(S(=O)(=O)NCC(=O)NC2=NN=C(c3ccc(Cl)cc3Cl)CS2)cc1` [Example 18, 2-{[(4-tert-Butylphenyl)sulfonyl]amino}-N-[5-(2,4-dichlorophenyl)-6H-1,3,4-thiadiazin-2-yl]acetamide], the IC50 at MMP-1 was found to be 424 nM; on MMP-9 it was 2600 nM; at cdMMP-13 (read-out: cdMMP-13 IC50), 1410 nM; on cdMMP-12, 657 nM; on cdMMP-14, 780 nM.
The like results for `C[C@@H](NS(=O)(=O)c1ccccc1)C(=O)NC1=NN=C(c2ccc(C#N)cc2)CS1` [Example 1, (2R)-N-[5-(4-Cyanophenyl)-6H-1,3,4-thiadiazine-2-yl]-2-[(phenylsulfonyl)amino]-propanamide] were, in that order, 451 nM, 232 nM, 368 nM, 444 nM and 346 nM.
On to `C[C@H](NS(=O)(=O)N1CCOCC1)C(=O)NC1=NN=C(c2ccc(Cl)cc2)CS1` [Example 28, (2S)-N-[5-(4-Chlorophenyl)-6H-1,3,4-thiadiazin-2yl-]-2-[(4-morpholinylsulfonyl)amino]propanamide], for which the IC50 at MMP-1 is 537 nM; on MMP-9 it was 1200 nM; against cdMMP-13, 735 nM; against cdMMP-12, 330 nM; against cdMMP-14 it was 471 nM.
On to `O=C(CC1NC(=O)NC1=O)NC1=NN=C(c2ccc(Br)cc2)CS1` (stereo not drawn) [Example 24, N-[5-(4-Bromophenyl)-6H-1,3,4-thiadiazin-2-yl]-2-(2,5-dioxo-4-imidazolidinyl)-acetamide], for which the percent inhibition on MMP-9 is on record as 45%^a)@ 15; at cdMMP-13 it was 39%^a)@ 15. The IC50 on cdMMP-12 was found to be 297 nM; against cdMMP-14 it was 1070 nM.
On to `C[C@H](NS(=O)(=O)c1ccccc1)C(=O)NC1=NN=C(c2ccc([N+](=O)[O-])cc2)CS1` [Example 9, (2S)-N-[5-(4-Nitrophenyl)-6H-1,3,4-thiadiazin-2-yl]-2-[(phenylsulfonyl)amino]-propanamide], for which the IC50 against MMP-1 stood at 294 nM; against MMP-9, 552 nM; at cdMMP-13 (read-out: cdMMP-13 IC50), 449 nM; at cdMMP-12 it was 342 nM; against cdMMP-14, 556 nM.
On to `C=CCNC1=NN=C(c2ccc(Cl)cc2)CS1` [Example 31, N-Allyl-5-(4-chlorophenyl)-6H-1,3,4-thiadiazin-2-amine hydrobromide], for which the IC50 against MMP-9 was 783 nM; against cdMMP-13, over 15000 nM; on cdMMP-12 it was over 15000 nM; on cdMMP-14, 2700 nM.
On to `O=C(CC1NC(=O)NC1=O)NC1=NN=C(c2ccc(Cl)cc2)CS1` (stereo not drawn) [Example 23, N-[5-(4-Chlorophenyl)-6H-1,3,4-thiadiazin-2-yl]-2-(2,5-dioxo-4-imidazolidinyl)-acetamide], for which the percent inhibition at MMP-9 was 40%^a)@ 15; on cdMMP-13, 34%^a)@ 15; at cdMMP-14 (cdMMP-14, @ 15 (µM)), 52%^a)@ 15. This compound also gave an IC50 at cdMMP-12 of 380 nM.
For the compound `COc1ccc(S(=O)(=O)NCC(=O)NC2=NN=C(c3ccc(Cl)cc3Cl)CS2)cc1` [Example 19, N-[5-(2,4-Dichlorophenyl)-6H-1,3,4-thiadiazin-2-yl]-2-{[(4-methoxyphenyl)-sulfonyl]amino}acetamide], the IC50 was 661 nM against MMP-9, 605 nM on cdMMP-13 (read-out: cdMMP-13 IC50), 259 nM against cdMMP-12 and 700 nM on cdMMP-14.
As for `C[C@H](NS(=O)(=O)c1ccccc1)C(=O)NC1=NN=C(c2ccc(C#N)cc2)CS1` [Example 3, (2S)-N-[5-(4-Cyanophenyl)-6H-1,3,4-thiadiazin-2-yl]-2-[(phenylsulfonyl)amino]-propanamide], the IC50 against MMP-1 was found to be 449 nM; on MMP-9, 329 nM; at cdMMP-13 (read-out: cdMMP-13 IC50), 387 nM; against cdMMP-12 it was 447 nM; against cdMMP-14, 459 nM.
For `CC(C)[C@@H](NS(=O)(=O)c1ccccc1)C(=O)NC1=NN=C(c2ccc(Cl)cc2)CS1` [Example 2, (2R)-N-[5-(4-Chlorophenyl)-6H-1,3,4-thiadiazin-2-yl]-3-methyl-2-[(phenylsulfonyl)amino]butanamide], the IC50 was 629 nM at MMP-1, over 15000 nM at cdMMP-13 (read-out: cdMMP-13 IC50), 426 nM on cdMMP-12 and 1110 nM against cdMMP-14. Also, on MMP-9, the percent inhibition stood at 40%^a)@ 15.
Consider `COc1ccc(S(=O)(=O)NCC(=O)NC2=NN=C(c3c(F)c(F)c(F)c(F)c3F)CS2)cc1` [Example 16, 2-{[(4-Methoxyphenyl)sulfonyl]amino}-N-[5-(2,3,4,5,6-pentafluorophenyl)-6H-1,3,4-thiadiazin-2-yl]acetamide], for which the IC50 against MMP-9 came out at 2570 nM; at cdMMP-13 (read-out: cdMMP-13 IC50) it was 1090 nM; on cdMMP-12, 920 nM; at cdMMP-14, 1760 nM.
The like results for `COc1ccc(S(=O)(=O)N[C@@H](C)C(=O)NC2=NN=C(c3ccc(C)cc3)CS2)cc1` [Example 17, (2S)-2-{[(4-Methoxyphenyl)sulfonyl]amino}-N-[5-(4-methylphenyl)-6H-1,3,4-thiadiazin-2-yl]propanamide] were, in that order, 689 nM, 1110 nM, 436 nM and 707 nM.
For `CC(C)[C@H](NS(=O)(=O)c1ccccc1)C(=O)NC1=NN=C(c2ccc(Cl)cc2)CS1` [Example 22, (2S)-N-[5-(4-Chlorophenyl)-6H-1,3,4-thiadiazin-2-yl]-3-methyl-2-[(phenylsulfonyl)amino]butanamide], in that order: 851 nM, over 15000 nM, 463 nM and 1400 nM.
Take `C[C@H](NS(=O)(=O)c1ccccc1)C(=O)NC1=NN=C(c2ccc(Br)cc2)CS1` [Example 6, (2S)-N-[5-(4-Bromophenyl)-6H-1,3,4-thiadiazin-2-yl]-2-[(phenylsulfonyl)amino]-propanamide]: the IC50 on MMP-9 was 686 nM; at cdMMP-13, 658 nM; against cdMMP-12 it was 533 nM; against cdMMP-14, 637 nM.
